Test results published in patent US20250235545A1, “POLYPEPTIDE CONJUGATE AND USE THEREOF” (SHANGHAI CHIXI BIOMEDICAL TECHNOLOGY CO., LTD, priority 2024, published 2025).
≈ marks a conversion by molar mass, not a printed value. Where two headings read alike, the source gives them in different places.

Experiments:
[1] = test system: A2780 (ovarian cancer); assay: cells; format: cell-based; settings: CCK8, 48 h; for IC50: Homo sapiens, A2780
Method: (§1) Different types of cells were cultured with complete media (RPMI1640 (DMEM high sugar medium)+10% fetal bovine serum+1XP/S+sodium pyruvate 1 mM solution) in an incubator at 37° C. and 5% CO2 until the cells grew to a sufficient number, and the cells were collected, centrifuged at 1,000 g for 5 min, resuspended with an appropriate volume of a 10% RMPI1640 (DMEM high sugar medium) medium and counted. In a 96-well culture plate, 100 μL of cell culture fluid containing different concentrations of drugs was added, control wells (0.1% DMSO) with only corresponding drug solvents without drugs, as well as blank wells (Blank) with only the medium but without cells were set, and three parallel wells were set in each group. After that, the cells after cell counting were inoculated onto 96-well culture plates, with 100 μL of cell suspension per well, and an inoculation concentration of the cells was 5,000 cells (100 μL)/well. The plates were then cultured in a CO2 (5%) incubator at 37° C. for 48 h. After 48 h, 10 μL of a cell proliferation staining reagent (CCK8) was added to each well, the plates were incubated in a cell incubator for around 2 h, and an absorbance at 450 nm was detected.
(§2) Cell survival rates and median inhibitory concentrations of the drugs on the cells were calculated.
as §1, with “serum+1×P/S+sodium” for “serum+1XP/S+sodium”, “adjusted to an appropriate density.” for “counted.”
(§3) Cell survival rates and median inhibitory concentrations (IC50) of the drugs on the cells were calculated.

[2] = test system: A549 (non-small cell lung cancer); assay: cells; format: cell-based; settings: CCK8, 48 h; for IC50: Homo sapiens, A549
Method: as §1, §2
as §1, with “serum+1×P/S+sodium” for “serum+1XP/S+sodium”, “adjusted to an appropriate density.” for “counted.”
as §3

[3] = test system: SKBR3 (breast cancer tissue); assay: cells; format: cell-based; settings: CCK8, 48 h; for IC50: Homo sapiens, SK-BR-3
Method: as §1, §2
as §1, with “serum+1×P/S+sodium” for “serum+1XP/S+sodium”, “adjusted to an appropriate density.” for “counted.”
as §3

[4] = test system: SJSA-1 (sarcoma tissue); assay: cells; format: cell-based; settings: CCK8, 48 h; for IC50: Homo sapiens, SJSA-1
Method: as §1, §2
as §1, with “serum+1×P/S+sodium” for “serum+1XP/S+sodium”, “adjusted to an appropriate density.” for “counted.”
as §3

[5] = test system: colo320 colorectal cancer tumor model
Method: Test objective: To investigate the antitumor efficacy of the above compounds in an animal tumor model of colo320 colorectal cancer.
(§4) Test drug: Polypeptide conjugate, Irinotecan, Belotecan and normal saline control group.
(§5) Test animals: 6-8 weeks old BALB/c mice, all female.
(§6) Passaging was performed every three days, and cells within 15 generations were used. 7.5×10^6 corresponding cells were injected into right chests of nude mice subcutaneously. After a volume of the tumors reached at least 120 mm^3, the mice were grouped randomly, with three mice in each group. Then treatment was started, and the day when the treatment was started was the first day. […] The control group was administered with normal saline. Administration was performed once a week for four weeks.

[6] = test system: colo320 (colorectal cancer tissue); assay: cells; format: cell-based; settings: CCK8, 48 h, Table 6
Method: as §1, with “serum+1×P/S+sodium” for “serum+1XP/S+sodium”, “adjusted to an appropriate density.” for “counted.”
as §3

[7] = MTD determination in mice (Examples 27, 36, 44); format: in vivo
Source text: Test animals: 6-8 weeks old mice, all female; mice were grouped randomly, with six mice in each group, administered with drugs at different concentration gradients separately and monitored for 14 d. A mouse was euthanized at a loss of 20% of its initial weight and deemed to have died of poisoning.

[8] = test system: sarcoma SJSA-1 tumor model
Method: Test objective: To investigate the antitumor efficacy of the above compounds in an animal tumor model of sarcoma SJSA-1.
as §4, §5
as §6, with “SJSA-1 cells were purchased from ATCC and cultured in a DMEM medium containing 10% fetal bovine serum at 37° C. in 5% CO2. Passaging” for “Passaging”, “2×10^7” for “7.5×10^6”, “100” for “120”, “three” for “four”
as §6, with “SJSA-1 cells were purchased from ATCC and cultured in a DMEM medium containing 10% fetal bovine serum at 37° C. in 5% CO2. Passaging” for “Passaging”, “2×10^7” for “7.5×10^6”, “100” for “120”, “three” for “four”

[9] = 15 mg/kg once a week for four weeks, Table 3
[10] = 15 mg/kg once a week for four weeks, Table 8
[11] = Table 13 (Example 42), dose 15 mg/kg, once a week for four weeks, BALB/c mice
[12] = Table 14 (Example 43), dose 15 mg/kg, once a week for four weeks, BALB/c mice
[13] = 15 mg/kg once a week for three weeks, Table 2
[14] = 15 mg/kg once a week for three weeks, Table 7
[15] = 5 mg/kg once a week for four weeks, Table 3
[16] = 5 mg/kg once a week for four weeks, Table 8
[17] = 5 mg/kg once a week for three weeks, Table 2
[18] = 5 mg/kg once a week for three weeks, Table 7

In the case of CCc1c2c(nc3ccc(OC(=O)N4CCC(N5CCCCC5)CC4)cc13)-c1cc3c(c(=O)n1C2)COC(=O)[C@]3(O)CC [Irinotecan, reference compound], the IC50 ([1]; Table 1, read-out: IC50 A2780 (ovarian cancer)) is reported as 0.16 µg/mL (≈ 0.273 µM), the IC50 ([1]; Table 6, read-out: IC50 Ovarian cancer tissue (A2780)) is reported as 0.16 µg/mL (≈ 0.273 µM) and the IC50 ([2]; Table 1, read-out: IC50 A549 (non-small cell lung cancer)) is reported as 0.11 µg/mL (≈ 0.187 µM). The IC50 ([2]; Table 6, read-out: IC50 Non-small cell lung cancer tissue (A549)) was 0.11 µg/mL (≈ 0.187 µM), the IC50 ([3]; Table 1, read-out: IC50 SKBR3 (breast cancer tissue)) was 0.25 µg/mL (≈ 0.426 µM) and the IC50 ([3]; Table 6, read-out: IC50 Breast cancer tissue (SKBR3)) was 0.25 µg/mL (≈ 0.426 µM). The IC50 ([4]; Table 1, read-out: IC50 SJSA-1 (sarcoma tissue)) was 0.11 µg/mL (≈ 0.187 µM), the IC50 ([4]; Table 6, read-out: IC50 Sarcoma tissue (SJSA-1)) was 0.11 µg/mL (≈ 0.187 µM) and the “Mouse weight (%)” value [5, 9] was “+35%”. For the same compound, the “colo320 (colorectal cancer cell) growth rate (%)” value (shortened to “colo320 … (%)”) [5, 9] was 815.39%, the “Mouse weight (%)” value [5, 10] was “+35%” and the “colo320 … (%)” value [5, 10] was 815.39%. The “Mouse weight (%)” value [5, 11] was “+35%”, the “colo320 … (%)” value [5, 11] was 815.39% and the “Mouse weight (%)” value [5, 12] was “+35%”. The “colo320 … (%)” value [5, 12] was 815.39%, the IC50 ([6]; Homo sapiens, COLO 320) was 0.11 µg/mL (≈ 0.187 µM) and the MTD ([7]; female, mouse, in vivo, 'around', read-out: MTD (as stated in dosage instructions)) was ~70 mg/kg. The MTD ([7]; female, mouse, in vivo, Table 15 (Example 44), mice, six per group, monitored for 14 d, read-out: MTD) was 75 mg/kg, the MTD ([7]; female, mouse, in vivo, mice, monitored for 14 d, Table 4, read-out: MTD) was 75 mg/kg and the MTD ([7]; female, mouse, in vivo, mice, monitored for 14 d, Table 9, read-out: MTD) was 75 mg/kg. The “Mouse weight (%)” value [8, 13] was “+17%”, the “SJSA-1 (sarcoma) Growth rate (%)” value [8, 13] was 798.05% and the “Mouse weight (%)” value [8, 14] was “+17%”. For the same compound, the “SJSA-1 (sarcoma tissue) growth rate (%)” value [8, 14] was 798.05%.
For CCNCCc1c2c(nc3ccccc13)-c1cc3c(c(=O)n1C2)COC(=O)[C@]3(O)CC [D2], the “IC50 A2780 (ovarian cancer)” value ([1]; Table 1) was 0.018 µg/mL (≈ 0.0429 µM), the “IC50 Ovarian cancer tissue (A2780)” value ([1]; Table 6) was 0.018 µg/mL (≈ 0.0429 µM) and the “IC50 A549 (non-small cell lung cancer)” value ([2]; Table 1) was 0.030 µg/mL (≈ 0.0715 µM). For the same compound, the “IC50 Non-small cell lung cancer tissue (A549)” value ([2]; Table 6) was 0.030 µg/mL (≈ 0.0715 µM), the “IC50 SKBR3 (breast cancer tissue)” value ([3]; Table 1) was 0.036 µg/mL (≈ 0.0858 µM) and the “IC50 Breast cancer tissue (SKBR3)” value ([3]; Table 6) was 0.036 µg/mL (≈ 0.0858 µM). For the same compound, the “IC50 SJSA-1 (sarcoma tissue)” value ([4]; Table 1) was 0.023 µg/mL (≈ 0.0548 µM), the “IC50 Sarcoma tissue (SJSA-1)” value ([4]; Table 6) was 0.023 µg/mL (≈ 0.0548 µM) and the “Mouse weight (%)” value [5, 15] was −7%. For the same compound, the “colo320 … (%)” value [5, 15] was 946.13%, the “colo320 (colorectal cancer cell) mean tumor volume (mm^3)” value [5, 15] was 1047.9 mm^3 and the “Mouse weight (%)” value [5, 16] was −7%. For the same compound, the “colo320 … (%)” value [5, 16] was 946.13%, the “colo320 (colorectal cancer cell) mean tumor volume (mm^3)” value [5, 16] was 1047.9 mm^3 and the “IC50 Colorectal cancer tissue (colo320)” value [6] was 0.051 µg/mL (≈ 0.122 µM). The MTD ([7]; mice, monitored for 14 d, Table 4) was 25 mg/kg, the MTD ([7]; mice, monitored for 14 d, Table 9) was 25 mg/kg and the “Mouse weight (%)” value [8, 17] was −8%. The “SJSA-1 (sarcoma tissue) mean tumor volume (mm^3)” value [8, 17] was 1176.5 mm^3, the “SJSA-1 (sarcoma) Growth rate (%)” value [8, 17] was 1018.01% and the “Mouse weight (%)” value [8, 18] was −8%. For the same compound, the “SJSA-1 (sarcoma tissue) growth rate (%)” value [8, 18] was 1018.01% and the “SJSA-1 (sarcoma tissue) mean tumor volume (mm^3)” value [8, 18] was 1176.5 mm^3.
